Reference: patent publication US20260242320A1, “USE OF CANNABIDIOL DERIVATIVE IN PREPARATION OF MEDICAMENT” (priority 2023, published 2026)

Test system: microglial activation marker Iba1
Assay: Iba1 immunofluorescence staining of brain sections
Format: in vivo, mice
Details: chronic morphine
Method: Mice were anesthetized with tribromoethanol following the CPP assay and intracardially perfused with 8 mL saline; the brains were then stripped out and embedded in paraffin. The brain was sectioned coronally at 5 μm thickness on a vibrating microtome. Paraffin-processed tissues were deparaffinized in xylene and rehydrated with a graded alcohol solution. The sections were placed in 0.01 M citrate buffer (pH 6.0) and heated in a microwave oven for hot antigen repair. These sections were incubated with goat serum for 20 min at 37° C. and then with rabbit anti-Iba1 monoclonal antibody at 4° C. overnight. After three washes with PBS, the sections were incubated with an Alexa-488-conjugated secondary antibody for 1 h in the dark. Ultimately, followed by three washes with PBS twice for 5 min each, the sections were counterstained with DAPI and examined under a confocal microscope

C=C(C)[C@@H]1CCC(C)=C[C@H]1c1c(O)cc(C(C)n2nccn2)cc1O (stereo partly drawn) [CIAC001, (1′R,2′R)-4-(1-(2H-1,2,3-Triazol-2-yl)ethyl)-5′-methyl-2′-(prop-1-en-2-yl)-1′,2′,3′,4′-tetrahydro-[1,1′-biphenyl]-2,6-diol]
expression of Iba1 in the mPFC: decreased the expression of Iba1
